Assay results reported in patent US8410302B2, “Methoxyimino compounds and fungicide composition comprising same” (Kyung Nong Corporation, priority 2007, dated 2013).

What was measured:
[1] = test system: Pyricularia oryzae Carvara KA301; assay: whole plant or invertebrate; format: in vivo; details: for pest or weed control at 2 ppm / pest or weed control at 10 ppm / pest or weed control at 50 ppm / pest or weed control at 100 ppm: Pyricularia oryzae, read-out: RCB control value (C.V.)
Botrytis cinerae = assay: Fungicidal activity against cucumber gray mold rot (CGM) disease, control value; format: in vivo; details: for pest or weed control at 100 ppm: Botrytis, cucumber gray mold rot, read-out: CGM control value (C.V.)
Phytophthora infestans = assay: whole plant or invertebrate; format: in vivo; details: for pest or weed control at 2 ppm / pest or weed control at 10 ppm / pest or weed control at 50 ppm / pest or weed control at 100 ppm: Phytophthora infestans, in Solanum lycopersicum, read-out: TLB control value (C.V.)
Puccinia recondita = assay: Fungicidal activity against wheat leaf rust (WLR) disease, control value; format: in vivo; details: for pest or weed control at 2 ppm / pest or weed control at 10 ppm / pest or weed control at 50 ppm / pest or weed control at 100 ppm: wheat leaf rust, read-out: WLR control value (C.V.)
Erysiphae graminis = assay: Fungicidal activity against barley powdery mildew (BPM) disease, control value; format: in vivo; details: for pest or weed control at 2 ppm / pest or weed control at 10 ppm / pest or weed control at 50 ppm / pest or weed control at 100 ppm: Hordeum vulgare, 168 h, barley powdery mildew, read-out: BPM control value (C.V.)
Rhizoctonia solani AG-1 = assay: Fungicidal activity against rice sheath blight (RSB) disease, control value
[2] = Rhizoctonia solani, AG1, in Oryza sativa, read-out: RSB control value (C.V.)

CO/N=C(/C(=O)OC)c1ccccc1COc1ccc(C=C(Br)Br)cc1 [Example 7, methyl-(E)-2-(2-((4-(2,2-dibromovinyl)phenoxy)methyl)phenyl)-2-methoxyiminoacetate]
pest or weed control at 2 ppm [1]: 100% | pest or weed control at 10 ppm [1]: 100% | pest or weed control at 50 ppm [1]: 100% | pest or weed control at 100 ppm [1]: 100% | pest or weed control at 100 ppm (Botrytis cinerae): 35% | pest or weed control at 2 ppm (Phytophthora infestans): 100% | pest or weed control at 10 ppm (Phytophthora infestans): 100% | pest or weed control at 50 ppm (Phytophthora infestans): 100% | pest or weed control at 100 ppm (Phytophthora infestans): 100% | pest or weed control at 2 ppm (Puccinia recondita; 2 ppm): 100% | pest or weed control at 10 ppm (Puccinia recondita; 10 ppm): 100% | pest or weed control at 50 ppm (Puccinia recondita; 50 ppm): 100% | pest or weed control at 100 ppm (Puccinia recondita): 100% | pest or weed control at 2 ppm (Erysiphae graminis; 2 ppm): 100% | pest or weed control at 10 ppm (Erysiphae graminis; 10 ppm): 100% | pest or weed control at 50 ppm (Erysiphae graminis; 50 ppm): 100% | pest or weed control at 100 ppm (Erysiphae graminis): 100% | pest or weed control at 2 ppm (Rhizoctonia solani AG-1; [2]): 98% | pest or weed control at 10 ppm (Rhizoctonia solani AG-1; [2]): 100% | pest or weed control at 50 ppm (Rhizoctonia solani AG-1; [2]): 100% | pest or weed control at 100 ppm (Rhizoctonia solani AG-1; [2]): 100%

CO/N=C(/C(=O)OC)c1ccccc1COc1ccc(C=C(Cl)Cl)cc1 [Example 3, methyl-(E)-2-(2-((4-(2,2-dichlorovinyl)phenoxy)methyl)phenyl)-2-methoxyiminoacetate]
pest or weed control at 2 ppm [1]: 30% | pest or weed control at 10 ppm [1]: 90% | pest or weed control at 50 ppm [1]: 100% | pest or weed control at 100 ppm [1]: 100% | pest or weed control at 100 ppm (Botrytis cinerae): 50% | pest or weed control at 2 ppm (Phytophthora infestans): 0% | pest or weed control at 10 ppm (Phytophthora infestans): 35% | pest or weed control at 50 ppm (Phytophthora infestans): 95% | pest or weed control at 100 ppm (Phytophthora infestans): 98% | pest or weed control at 2 ppm (Puccinia recondita; 2 ppm): 40% | pest or weed control at 10 ppm (Puccinia recondita; 10 ppm): 90% | pest or weed control at 50 ppm (Puccinia recondita; 50 ppm): 100% | pest or weed control at 100 ppm (Puccinia recondita): 100% | pest or weed control at 2 ppm (Erysiphae graminis; 2 ppm): 20% | pest or weed control at 10 ppm (Erysiphae graminis; 10 ppm): 50% | pest or weed control at 50 ppm (Erysiphae graminis; 50 ppm): 95% | pest or weed control at 100 ppm (Erysiphae graminis): 95% | pest or weed control at 100 ppm (Rhizoctonia solani AG-1; [2]): 60%

CO/C=C(/C(=O)OC)c1ccccc1Oc1cc(Oc2ccccc2C#N)ncn1 [Azoxystrobin, reference compound]
RCB control value (C.V.) ([1]; 0.4 ppm): 30% | RCB control value (C.V.) ([1]; 2 ppm): 90% | RCB control value (C.V.) ([1]; 10 ppm): 100% | RCB control value (C.V.) ([1]; 50 ppm): 100% | CGM control value (C.V.) (Botrytis cinerae; 50 ppm): 40% | TLB control value (C.V.) (Phytophthora infestans; 0.4 ppm): 50% | TLB control value (C.V.) (Phytophthora infestans; 2 ppm): 90% | TLB control value (C.V.) (Phytophthora infestans; 10 ppm): 98% | TLB control value (C.V.) (Phytophthora infestans; 50 ppm): 100% | WLR control value (C.V.) (Puccinia recondita; 0.4 ppm): 95% | WLR control value (C.V.) (Puccinia recondita; 2 ppm): 100% | WLR control value (C.V.) (Puccinia recondita; 10 ppm): 100% | WLR control value (C.V.) (Puccinia recondita; 50 ppm): 100% | BPM control value (C.V.) (Erysiphae graminis; 0.4 ppm): 95% | BPM control value (C.V.) (Erysiphae graminis; 2 ppm): 100% | BPM control value (C.V.) (Erysiphae graminis; 10 ppm): 100% | BPM control value (C.V.) (Erysiphae graminis; 50 ppm): 100% | RSB control value (C.V.) (Rhizoctonia solani AG-1; 0.4 ppm): 67% | RSB control value (C.V.) (Rhizoctonia solani AG-1; 2 ppm): 98% | RSB control value (C.V.) (Rhizoctonia solani AG-1; 10 ppm): 100% | RSB control value (C.V.) (Rhizoctonia solani AG-1; 50 ppm): 100%
